Assay results published in the supplement of paper PMC9663587.

What was measured:
[1] = compound: CO[C@@H](C)Cn1c(=O)n(C)c2cnc3ccc(-c4cncc(C(C)(C)O)c4)cc3c21
Flavopiridol [2] = compound: T1, CN1CC[C@H](c2c(O)cc(O)c3c(=O)cc(-c4ccccc4Cl)oc23)[C@H](O)C1 [Flavopiridol]
Taselisib/GDC0032 = compound: Cc1nc(-c2cn3c(n2)-c2ccc(-c4cnn(C(C)(C)C(N)=O)c4)cc2OCC3)n(C(C)C)n1 [Taselisib/GDC0032]
Saracatinib/AZD0530 = compound: CN1CCN(CCOc2cc(OC3CCOCC3)c3c(Nc4c(Cl)ccc5c4OCO5)ncnc3c2)CC1 [Saracatinib/AZD0530]
ABT-737 = compound: CN(C)CC[C@H](CSc1ccccc1)Nc1ccc(S(=O)(=O)NC(=O)c2ccc(N3CCN(Cc4ccccc4-c4ccc(Cl)cc4)CC3)cc2)cc1[N+](=O)[O-] [ABT-737]
YKL-5-124 = compound: C=CC(=O)Nc1ccc(C(=O)Nc2[nH]nc3c2CN(C(=O)N[C@H](CN(C)C)c2ccccc2)C3(C)C)cc1 [YKL-5-124]; assay: GR value, 72 h; higher = faster growth (1 = untreated, <0 = killing);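 note: breast cancer and non-malignant breast epithelial lines, nine half-log doses, viable cells counted by Hoechst and LIVE/DEAD dye imaging versus time-zero plates and DMSO controls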
Flavopiridol [3] = compound: T1, Flavopiridol; assay: as above
[4] = compound: CC(=O)c1c(C)c2cnc(Nc3ccc(N4CCNCC4)cn3)nc2n(C2CCCC2)c1=O; assay: as above
BSJ-03-123 = compound: CC(=O)c1c(C)c2cnc(Nc3ccc(N4CCN(CCOCCOCCOCCNC(=O)COc5cccc6c5C(=O)N(C5CCC(=O)NC5=O)C6=O)CC4)cn3)nc2n(C2CCCC2)c1=O [BSJ-03-123]; assay: as above
[5] = compound: CCc1cnn2c(NCc3ccc[n+]([O-])c3)cc(N3CCCC[C@H]3CCO)nc12; assay: as above
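Throughout, for GR50, 72 h: breast cancer and non-malignant breast epithelial cell lines, Deep Dye Drop or Dye Drop imaging, nine half-log doses, GR normalized to time-zero plates and DMSO-only controls.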

**Q.** What does the source list for SUM149?
**A.** GR50, 72 h [1]: 1.55 µM; GR50, 72 h (Flavopiridol [2]): 0.196 µM; GR50, 72 h (Taselisib/GDC0032): 2.55 µM; GR50, 72 h (Saracatinib/AZD0530): 2.49 µM; GR50, 72 h (ABT-737): 3.63 µM; GR value (YKL-5-124; 0.001 µM): 0.351 GR; GR value (YKL-5-124; 0.003162 µM): 0.226 GR; GR value (YKL-5-124; 0.01 µM): 0.228 GR; GR value (YKL-5-124; 0.03162 µM): 0.141 GR; GR value (YKL-5-124; 0.1 µM): 0.132 GR; GR value (YKL-5-124; 0.3162 µM): 0.114 GR; GR value (YKL-5-124; 1 µM): 0.0596 GR; GR value (YKL-5-124; 3.162 µM): 0.0431 GR; GR value (YKL-5-124; 10 µM): -0.104 GR; GR value (Flavopiridol [3]; 0.0001 µM): 0.972 GR; GR value (Flavopiridol [3]; 0.0003162 µM): 1.01 GR; GR value (Flavopiridol [3]; 0.001 µM): 0.951 GR; GR value (Flavopiridol [3]; 0.003162 µM): 0.944 GR; GR value (Flavopiridol [3]; 0.01 µM): 0.862 GR; GR value (Flavopiridol [3]; 0.03162 µM): 0.964 GR; GR value (Flavopiridol [3]; 0.1 µM): 0.788 GR; GR value (Flavopiridol [3]; 0.3162 µM): 0.177 GR; GR value (Flavopiridol [3]; 1 µM): -0.591 GR; GR value ([4]; 0.0003162 µM): 1.02 GR; GR value ([4]; 0.001 µM): 1.03 GR; GR value ([4]; 0.003162 µM): 0.983 GR; GR value ([4]; 0.01 µM): 0.981 GR; GR value ([4]; 0.03162 µM): 0.82 GR; GR value ([4]; 0.1 µM): 0.701 GR; GR value ([4]; 0.3162 µM): 0.623 GR; GR value ([4]; 1 µM): 0.567 GR; GR value ([4]; 3.162 µM): 0.485 GR; GR value (BSJ-03-123; 0.001 µM): 0.996 GR; GR value (BSJ-03-123; 0.003162 µM): 0.91 GR; GR value (BSJ-03-123; 0.01 µM): 0.904 GR; GR value (BSJ-03-123; 0.03162 µM): 0.794 GR; GR value (BSJ-03-123; 0.1 µM): 0.81 GR; GR value (BSJ-03-123; 0.3162 µM): 0.72 GR; GR value (BSJ-03-123; 1 µM): 0.579 GR; GR value (BSJ-03-123; 3.162 µM): 0.428 GR; GR value (BSJ-03-123; 10 µM): 0.0273 GR; GR value ([5]; 0.0001 µM): 1.01 GR; GR value ([5]; 0.0003162 µM): 1.04 GR; GR value ([5]; 0.001 µM): 1.01 GR; GR value ([5]; 0.003162 µM): 1.03 GR; GR value ([5]; 0.01 µM): 0.828 GR; GR value ([5]; 0.03162 µM): -0.457 GR
